US20250241985A1, “NANOLIPOSOME COMPOSITIONS AND METHODS OF TREATING STROKE” (United States Government As Represented By The Department …, priority 2020, published 2025)

Experiments:
[1] = test system: human brain microvascular endothelial cells (HBMVECs); test: Viability of human brain microvascular endothelial cells under physoxia/hypoxia, with or without medin (calcein-AM, flow cytometry); type: cell-based; settings: medin 5 μM, 20 hours; for cell viability under hypoxic condition: hypoxia (1% oxygen)
Description: (§1) Methods. Recombinant medin was expressed in Lemo 21 (DE3) cells using POPINS-medin (Karamanova N, et al. J Am Heart Assoc 2020; 9:e014810) and confirmed to have >95% purity by SDS-PAGE. GM1L was prepared from phosphatidylcholine, cholesterol and monosialoganglioside (molar ratios 70:25:5) using lipid hydration method (Karamanova N, et al. J Am Heart Assoc 2020; 9:e014810). Primary human brain microvascular ECs (Lonza, passages 4-8) were exposed for 20 hours to 4 different treatments (vehicle control, medin 5 μM, medin 5 μM+GM1L 300 μg/ml or GM1L 300 μg/ml) under two aerobic conditions: physoxia (5% oxygen) or hypoxia (1% oxygen). Cell viability was assessed using calcein-AM fluorescence (based on principle of intact esterases in viable cells that releases fluorescent calcein) using flow cytometry (measurements expressed relative to control ECs exposed to room air). Gene expression of antioxidant enzymes heme-oxygenase 1 (HO1), NADPH quinone dehydrogenase (NQO1) and superoxide dismutase 1 (SOD1) were measured separately by qPCR on ECs.
Cell viability was assessed using calcein-AM fluorescence using flow cytometry. Measurements are expressed relative to control HBMVECs exposed to room air.

HO-1, NQO1 and SOD1 = test: Gene (qPCR) and protein expression of antioxidant enzymes in endothelial cells; type: cell-based, human; settings: medin 5 μM, 20 hours
Description: as §1
Nrf2 is a transcription factor that is a master regulator of production of antioxidant enzymes and protective mechanisms against hypoxic/ischemic stress and inflammatory stress.

[2] = test system: stroke injury, preclinical models; settings: 150 mg/kg of free monosialoganglioside in saline; cited from earlier work

| Substance | cell viability under hypoxic condition [1] | cell viability under hypoxic condition ([1]; listed as Medin) | cell viability under physoxic condition ([1]; physoxia (5% oxygen)) | antioxidant enzyme gene expression versus control (HO-1, NQO1 and SOD1) | reduction in infarct volume, prior study [2] [%] |
| --- | --- | --- | --- | --- | --- |
| medin: 50-amino acid amyloidogenic peptide; recombinant, expressed in Lemo 21 (DE3) cells (RLDKQGNFNAWVAGSYGNDQWLQVDLGSSKEVTGIITQGARNFGSVQFVA; Medin; UniProt Q08431 268-317, looked up) | more so | significant additive adverse effect | reduced viability | did not elicit a change |  |
| monosialoganglioside |  |  |  |  | 6.8 |
